Data reported in US8871681B2, “Herbicidal compositions comprising 4-amino-3-chloro-5-fluoro-6-(4-chloro-2-fluoro-3-methoxyphenyl) pyridine-2-carboxylic acid or a derivative thereof and certain sulfonylureas” (Dow AgroSciences LLC, priority 2012, dated 2014).

Columns and labels:
[1] = system: GALAP (Galium aparine, cleavers); assay: Post-emergence foliar-applied weed control in cereal crops, greenhouse (Example III); format: in vivo, Galium aparine (L.); conditions: Table 51, after 20-22 days, 8.75 gai/ha alone
Experimental: Seeds of the desired test plant species were planted in Sun Gro MetroMix® 306 planting mixture, which typically has a pH of 6.0 to 6.8 and an organic matter content of about 30 percent, in plastic pots with a surface area of 103.2 square centimeters (cm^2). When required to ensure good germination and healthy plants, a fungicide treatment and/or other chemical or physical treatment was applied. The plants were grown for 7-36 days in a greenhouse with an approximate 14 hour photoperiod which was maintained at about 18° C. during the day and 17° C. during the night. Nutrients and water were added on a regular basis and supplemental lighting was provided with overhead metal halide 1000-Watt lamps as necessary. […]
Measured aliquot of benzyl ester of 4-amino-3-chloro-5-fluoro-6-(4-chloro-2-fluoro-3-methoxy-phenyl)pyridine-2-carboxylic acid (Compound A) was placed in 25 milliliter (mL) glass vials and diluted in a volume of 1.25% (v/v) Agri-dex crop oil concentrated to obtain stock solutions. […]
The treated plants and control plants were placed in a greenhouse as described above and watered by sub-irrigation to prevent wash-off of the test compounds. After 20-22 days, the condition of the test plants as compared with that of the control plants was determined visually and scored on a scale of 0 to 100 percent where 0 corresponds to no injury and 100 corresponds to complete kill. […]

[2] = system: ECHCO (Echinochloa colona, junglerice); assay: In-water applied weed control, transplanted paddy rice, greenhouse (Example II); format: in vivo, Echinochloa colona (L.) Link
Experimental: Weed seeds or nutlets of the desired test plant species were planted in puddled soil (mud) prepared by mixing a shredded, non-sterilized mineral soil (50.5 percent silt, 25.5 percent clay, and 24 percent sand, with a pH of about 7.6 and an organic matter content of about 2.9 percent) and water at a 1:1 volumetric ratio. The prepared mud was dispensed in 365 mL aliquots into 16-ounce (oz.) non-perforated plastic pots with a surface area of 86.59 square centimeters (cm^2) leaving a headspace of 3 centimeters (cm) in each pot. Rice seeds were planted in Sun Gro MetroMix® 306 planting mixture, which typically has a pH of 6.0 to 6.8 and an organic matter content of about 30 percent, in plastic plug trays. Seedlings at the second or third leaf stage of growth were transplanted into 860 mL of mud contained in 32-oz. non-perforated plastic pots with a surface area of 86.59 cm^2 4 days prior to herbicide application. The paddy was created by filling the headspace of the pots with 2.5 to 3 cm of water. When required to ensure good germination and healthy plants, a fungicide treatment and/or other chemical or physical treatment was applied. The plants were grown for 4-22 days in a greenhouse with an approximate 14 h photoperiod which was maintained at about 29′C during the day and 26° C. during the night. Nutrients were added as Osmocote® (19:6:12, N:P:K+minor nutrients) at 2 g per 16-oz. pot and 4 g per 32-oz. pot. Water was added on a regular basis to maintain the paddy flood, and supplemental lighting was provided with overhead metal halide 1000-Watt lamps as necessary. The plants were employed for testing when they reached the first through fourth true leaf stage.
Treatments consisted of the acid or esters of 4-amino-3-chloro-5-fluoro-6-(4-chloro-2-fluoro-3-methoxy-phenyl)pyridine-2-carboxylic acid (compound A) each formulated as an SC and various herbicidal components alone and in combination. Forms of compound A were applied on an acid equivalent basis.
Other herbicidal components were applied on an active ingredient basis and included acetolactate synthase (ALS)-inhibiting herbicides (sulfonylurea chemical class), azimsulfuron formulated as Gulliver®, bensulfuron-methyl formulated as Londax® 60DF, cyclosulfamuron (technical grade materail), ethoxysulfuron formulated as Sunrice® 15 WDG, flucetosulfuron formulated as Sukedachi® 1KG G, imazosulfuron formulated as Brazzos®, metsulfuron-methyl formulated as Lorate®, nicosulfuron formulated as Accent®, orthosulfamuron formulated as Strada® WG, propyrisulfuron formulated as Zeta One®, and rimsulfuron formulated as Matrix® WG.
Treatment requirements for each compound or herbicidal component were calculated based upon the rates being tested, the concentration of active ingredient or acid equivalent in the formulation, an application volume of 2 mL per component per pot, and an application area of 86.59 cm^2 per pot.
For formulated compounds, a measured amount was placed in an individual 100 or 200 mL glass vial and was dissolved in a volume of 1.25% (v/v) Agri-Dex® crop oil concentrate to obtain application solutions.
For technical grade compounds, a weighed amount was placed in an individual 100 to 200 mL glass vial and was dissolved in a volume of acetone to obtain concentrated stock solutions. […] The concentrated stock solutions obtained were diluted with an equivalent volume of an aqueous mixture containing 2.5% (v/v) crop oil concentrate so that the final application solutions contained 1.25% (v/v) crop oil concentrate.
Applications were made by injecting with a pipetter appropriate amounts of the application solutions, individually and sequentially, into the aqueous layer of the paddy. Control plants were treated in the same manner with the solvent blank. Applications were made so that all treated plant material received the same concentrations of acetone and crop oil concentrate. […]

With `COc1c(Cl)ccc(-c2nc(C(=O)OCc3ccccc3)c(Cl)c(N)c2F)c1F` [Compound A Benzyl Ester] the “Weed Control GALAP Obs” value [1] was 70%, the “Visual Weed Control (%) - 21 DAA ECHCO Obs” value (from here on “Visual Weed Control (%)”) ([2]; Table 39, 4.38 gae/ha alone) was 45% and the “Visual Weed Control (%)” value ([2]; Table 39, 8.75 gae/ha alone) was 30%. For the same compound, the “Visual Weed Control (%)” value ([2]; Table 39, 17.5 gae/ha alone) was 95%.
